The values that follow are results of earlier work, collected in PMC8513935.

The nature of data set [1]: log P octanol/water from commercial databases, averaged (the ESI). Particulars: Octanol (wet), 25 C.
The nature of data set [2]: experimental, compiled by the authors from the literature (the ESI cites the sources).

For `CCCC`, the log K of transfer, water to solvent in data set [1] was 2.89 log10 K. Besides, the log K of transfer, gas to solvent in data set [2] (2-Methylpropan-1-ol, 25 C) is 1.49 log10 K; in data set [2] (2-Methylpropan-2-ol, 25 C), 1.52 log10 K; in data set [2] (3-Methylbutan-1-ol, 25 C), 1.48 log10 K; in data set [2] (Butan-1-ol, 25 C), 1.37 log10 K; in data set [2] (Butanone, 25 C) it was 1.69 log10 K; in data set [2] (CCl4, 25 C), 1.96 log10 K. Moreover, the log K of transfer, gas to solvent in data set [2] (Chlorobenzene, 25 C) was 1.7 log10 K; in data set [2] (Cyclohexane, 25 C) it was 2.1 log10 K; in data set [2] (Di-n-butyl ether, 25 C), 1.79 log10 K; in data set [2] (Ethanol, 25 C), 1.4 log10 K; in data set [2] (Heptan-1-ol, 25 C), 1.43 log10 K; in data set [2] (Hexadecane, 25 C), 1.61 log10 K. Besides, the log K of transfer, gas to solvent in data set [2] (Hexane, 25 C) was 1.87 log10 K; in data set [2] (Methanol, 25 C), 1.27 log10 K; in data set [2] (Octan-1-ol, 25 C), 1.53 log10 K; in data set [2] (Pentan-1-ol, 25 C) it was 1.49 log10 K; in data set [2] (Propan-1-ol, 25 C), 1.45 log10 K; in data set [2] (Propan-2-ol, 25 C), 1.49 log10 K. In addition, the log K of transfer, gas to solvent in data set [2] (Propanone, 25 C) is 1.56 log10 K; in data set [2] (Water, 25 C) it was -1.52 log10 K.
Consider `CCCCCC`, for which the log K of transfer, water to solvent in data set [1] is 3.9 log10 K. Also, the log K of transfer, gas to solvent in data set [2] (1,2-Dichloroethane, 25 C) is 2.51 log10 K; in data set [2] (2-Methylpropan-1-ol, 25 C), 2.46 log10 K; in data set [2] (2-Methylpropan-2-ol, 25 C), 2.44 log10 K; in data set [2] (3-Methylbutan-1-ol, 25 C), 2.39 log10 K; in data set [2] (Acetonitrile, 25 C), 1.96 log10 K; in data set [2] (Benzene, 25 C) it was 2.65 log10 K. Moreover, the log K of transfer, gas to solvent in data set [2] (Butan-1-ol, 25 C) is 2.44 log10 K; in data set [2] (Butanone, 25 C), 2.52 log10 K; in data set [2] (Butyronitrile, 25 C), 2.34 log10 K; in data set [2] (CCl4, 25 C), 2.98 log10 K; in data set [2] (Chlorobenzene, 25 C) it was 2.95 log10 K; in data set [2] (Chloroform, 25 C), 2.87 log10 K. The log K of transfer, gas to solvent in data set [2] (Cyclohexanone, 25 C) is 2.44 log10 K; in data set [2] (Di-n-butyl ether, 25 C) it was 2.82 log10 K; in data set [2] (Dichloromethane, 25 C), 2.75 log10 K; in data set [2] (Ethanol, 25 C), 2.24 log10 K; in data set [2] (Heptan-1-ol, 25 C), 2.44 log10 K; in data set [2] (Hexadecane, 25 C), 2.67 log10 K. Besides, the log K of transfer, gas to solvent in data set [2] (Hexan-1-ol, 25 C) is 2.48 log10 K; in data set [2] (Hexane, 25 C), 2.97 log10 K; in data set [2] (Methanol, 25 C), 2.05 log10 K; in data set [2] (Octan-1-ol, 25 C) it was 2.44 log10 K; in data set [2] (Pentan-1-ol, 25 C) it was 2.44 log10 K; in data set [2] (Perfluoroalkane, 25 C) it was 1.88 log10 K. In addition, the log K of transfer, gas to solvent was 2.28 log10 K in data set [2] (Propan-1-ol, 25 C); 2.3 log10 K in data set [2] (Propan-2-ol, 25 C); 2.37 log10 K in data set [2] (Propanone, 25 C); 2.22 log10 K in data set [2] (Propionitrile, 25 C); 2.84 log10 K in data set [2] (Tetrahydrofuran, 25 C); 2.82 log10 K in data set [2] (Toluene, 25 C). Besides, the log K of transfer, gas to solvent in data set [2] (Water, 25 C) is -1.82 log10 K.
Consider `CC1CCCCC1`, for which the log K of transfer, water to solvent in data set [1] is 3.88 log10 K. Also, the log K of transfer, gas to solvent in data set [2] (Butanone, 25 C) was 3.02 log10 K; in data set [2] (Butyronitrile, 25 C), 2.99 log10 K; in data set [2] (Heptan-1-ol, 25 C), 3.05 log10 K; in data set [2] (Hexadecane, 25 C), 3.32 log10 K; in data set [2] (Octan-1-ol, 25 C) it was 3.05 log10 K; in data set [2] (Propan-2-ol, 25 C), 2.78 log10 K. The log K of transfer, gas to solvent in data set [2] (Propanone, 25 C) was 2.88 log10 K; in data set [2] (Propionitrile, 25 C), 2.85 log10 K; in data set [2] (Tetrahydrofuran, 25 C), 3.42 log10 K; in data set [2] (Water, 25 C), -1.25 log10 K.
Take `C=CCCC`: the log K of transfer, water to solvent in data set [1] was 2.8 log10 K. The log K of transfer, gas to solvent in data set [2] (1,2-Dichloroethane, 25 C) is 2.1 log10 K; in data set [2] (Butan-1-ol, 25 C) it was 1.94 log10 K; in data set [2] (Butanone, 25 C), 2.11 log10 K; in data set [2] (Chlorobenzene, 25 C), 2.21 log10 K; in data set [2] (Cyclohexanone, 25 C), 2.03 log10 K; in data set [2] (Hexadecane, 25 C), 2.05 log10 K. Also, the log K of transfer, gas to solvent was 1.93 log10 K in data set [2] (Octan-1-ol, 25 C) and -1.23 log10 K in data set [2] (Water, 25 C).
